Results on 9 molecules are retold here after patent US5349060A, “Rapamycin 31-ester with N,N-dimethylglycine derivatives useful as immunosuppressive agents” (American Home Products Corporation, priority 1993, dated 1994).

Test [1] has as its system cells from the thymus of normal BALB/c mice (thymocyte proliferation). Put plainly: comitogen-induced thymocyte proliferation procedure (LAF). It is filed as cell-based. Particulars: percent change in counts per minute from non-drug treated controls; for percent change in thymocyte proliferation (counts per minute) versus untreated control at 0.01 µM / percent change in thymocyte proliferation (counts per minute) versus untreated control at 0.1 µM: Mus musculus, 72 h, 72 h culture with PHA and IL-1; for percent change in thymocyte proliferation (counts per minute) versus untreated control at 0.01 µM: read-out: Percentage Inhibition in LAF Assay at 10 nM concentration, Analogs; for percent change in thymocyte proliferation (counts per minute) versus untreated control at 0.1 µM: read-out: Percentage Inhibition in LAF Assay at 100 nM concentration, Analogs. As to the method:
Briefly, cells from the thymus of normal BALB/c mice were cultured for 72 hours with PHA and IL-1 and pulsed with tritiated thymidine during the last six hours. Cells are cultured with and without various concentrations of rapamycin, cyclospofin A, or test compound. Cells are harvested and incorporated; radioactivity is determined. Inhibition of lymphoproliferation is assessed in percent change in counts per minute from non-drug treated controls.

For test [2], the system named is pinch skin graft from male BALB/c donors transplanted to male C3H recipients. Put plainly: skin graft assay (survival time of pinch skin graft). Particulars: intraperitoneally once daily for 6 consecutive days; rejection = 95% area necrosis or suture line off; typically rejected within 6-7 days without immunosuppressive agent. It is filed as in vivo, mouse (BALB/c donors. On the procedure:
The second in vivo test procedure is designed to determine the survival time of pinch skin graft from male BALB/c donors transplanted to male C3H recipients. The method is adapted from Billingham R. E. and Medawar P. B., J. Exp. Biol. 28:385-402, (1951). Briefly, a pinch skin graft from the donor is grafted on the dorsum of the recipient as an allograft and an isograft is used as control in the same region. The recipients are treated with the test compound, intraperitoneally once daily for 6 consecutive days. Untreated recipients serve as rejection control. The graft is monitored daily and observations are recorded until the graft becomes 95% area necrosis or the suture line is off. This is considered as the rejection day. The graft survival time is one day before the rejection day. The mean graft survival time (number of days ±S.D.) of the drug treatment group is compared with the control group.

Another test concerns Candida albicans. Particulars: particularly against Candida albicans, both in vitro and in vivo; cited from earlier work.
For test [3] the following is noted: alone or in combination with picibanil; cited from earlier work.
Test [4] deals with experimental allergic encephalomyelitis model, a model for multiple sclerosis. The conditions noted are these: in vivo; cited from earlier work.
In test [5] the test system is adjuvant arthritis model, a model for rheumatoid arthritis. Particulars: in vivo; cited from earlier work.
In test [6] the test system is formation of IgE-like antibodies. Particulars: cited from earlier work.

Several values for one entry are separate records, joined by “and”; a condition that tells them apart may be missing. Identical values can stand only once. Counter-ions that a name gives are not always drawn.

As to `CO[C@H]1C[C@@H]2CC[C@@H](C)[C@@](O)(O2)C(=O)C(=O)N2CCCC[C@H]2C(=O)O[C@H]([C@H](C)C[C@@H]2CC[C@@H](OS(=O)(=O)c3cccc4cccnc34)[C@H](OC)C2)CC(=O)[C@H](C)/C=C(\C)[C@@H](OC(=O)CN(C)C)[C@@H](OC)C(=O)[C@H](C)C[C@H](C)/C=C/C=C/C=C/1C` [Example 7, Rapamycin 31-Ester With N,N-dimethylglycine 42-Ester With 8-quinolinesulfonic Acid], the percent change in thymocyte proliferation (counts per minute) versus untreated control at 0.01 µM in test [1] (10 nM) is -62%. In addition, in test [1] (100 nM), the percent change in thymocyte proliferation (counts per minute) versus untreated control at 0.1 µM is -94%. In addition, in test [2], the “Skin Graft Assay, Analogs (mean graft survival time, days ± SD)” value is given as 9.33 ± 1.22 days.
Take `CO[C@H]1C[C@@H]2CC[C@@H](C)[C@@](O)(O2)C(=O)C(=O)N2CCCC[C@H]2C(=O)O[C@H]([C@H](C)C[C@@H]2CC[C@@H](OC(C)=O)[C@H](OC)C2)CC(=O)[C@H](C)/C=C(\C)[C@@H](OC(=O)CN(C)C)[C@@H](OC)C(=O)[C@H](C)C[C@H](C)/C=C/C=C/C=C/1C` [Example 2, Rapamycin 31-Ester With N,N-dimethylglycine HCl Salt 42-Ester With Acetic Acid]: in test [1] (10 nM), the percent change in thymocyte proliferation (counts per minute) versus untreated control at 0.01 µM was -59%. In addition, the percent change in thymocyte proliferation (counts per minute) versus untreated control at 0.1 µM in test [1] (100 nM) was -96%.
In the case of `CO[C@H]1C[C@@H]2CC[C@@H](C)[C@@](O)(O2)C(=O)C(=O)N2CCCC[C@H]2C(=O)O[C@H]([C@H](C)C[C@@H]2CC[C@@H](OC(=O)NS(=O)(=O)c3ccccc3)[C@H](OC)C2)CC(=O)[C@H](C)/C=C(\C)[C@@H](OC(=O)CN(C)C)[C@@H](OC)C(=O)[C@H](C)C[C@H](C)/C=C/C=C/C=C/1C` [Example 5, Rapamycin 31-Ester With N,N-dimethylglycine HCl Salt 42-Ester With Phenylsulfonyl Carbamic Acid], the percent change in thymocyte proliferation (counts per minute) versus untreated control at 0.01 µM in test [1] (10 nM) was 1%. Moreover, the percent change in thymocyte proliferation (counts per minute) versus untreated control at 0.1 µM in test [1] (100 nM) is -35%. Also, the “Skin Graft Assay, Analogs (mean graft survival time, days ± SD)” value in test [2] turned out to be 10.00 ± 0.57 days.
With `CO[C@H]1C[C@@H]2CC[C@@H](C)[C@@](O)(O2)C(=O)C(=O)N2CCCC[C@H]2C(=O)O[C@H]([C@H](C)C[C@@H]2CC[C@@H](O)[C@H](OC)C2)CC(=O)[C@H](C)/C=C(\C)[C@@H](OC(=O)CN(C)C)[C@@H](OC)C(O)[C@H](C)C[C@H](C)/C=C/C=C/C=C/1C` (stereo partly drawn) [Example 6, 33-Deoxy-33-hydroxyrapamycin 31-Ester With N,N-dimethylglycine HCl Salt], the percent change in thymocyte proliferation (counts per minute) versus untreated control at 0.01 µM in test [1] (10 nM) is -13%. Also, the percent change in thymocyte proliferation (counts per minute) versus untreated control at 0.1 µM in test [1] (100 nM) is -76%. Also, the “Skin Graft Assay, Analogs (mean graft survival time, days ± SD)” value in test [2] was found to be 9.50 ± 1.22 days.
Regarding `CO[C@H]1C[C@@H]2CC[C@@H](C)[C@@](O)(O2)C(=O)C(=O)N2CCCC[C@H]2C(=O)O[C@H]([C@H](C)C[C@@H]2CC[C@@H](OC(=O)Nc3ccccc3)[C@H](OC)C2)CC(=O)[C@H](C)/C=C(\C)[C@@H](OC(=O)CN(C)C)[C@@H](OC)C(=O)[C@H](C)C[C@H](C)/C=C/C=C/C=C/1C` [Example 3, Rapamycin 31-Ester With N,N-dimethylglycine HCl Salt 42-Ester With Phenylcarbamic Acid], the percent change in thymocyte proliferation (counts per minute) versus untreated control at 0.01 µM in test [1] (10 nM) is -14%. Further, in test [1] (100 nM), the percent change in thymocyte proliferation (counts per minute) versus untreated control at 0.1 µM is -82%.
The corresponding values for `CO[C@H]1C[C@@H]2CC[C@@H](C)[C@@](O)(O2)C(=O)C(=O)N2CCCC[C@H]2C(=O)O[C@H]([C@H](C)C[C@@H]2CC[C@@H](OS(=O)(=O)c3ccc(C)cc3)[C@H](OC)C2)CC(=O)[C@H](C)/C=C(\C)[C@@H](OC(=O)CN(C)C)[C@@H](OC)C(=O)[C@H](C)C[C@H](C)/C=C/C=C/C=C/1C` [Example 1, Rapamycin 31-Ester With N,N-dimethylglycine HCl Salt 42-Ester With p-toluenesulfonic Acid] are -6% and -74%.
In the case of `CO[C@H]1C[C@@H]2CC[C@@H](C)[C@@](O)(O2)C(=O)C(=O)N2CCCC[C@H]2C(=O)O[C@H]([C@H](C)C[C@@H]2CC[C@@H](OC(=O)Nc3ccc(F)cc3)[C@H](OC)C2)CC(=O)[C@H](C)/C=C(\C)[C@@H](OC(=O)CN(C)C)[C@@H](OC)C(=O)[C@H](C)C[C@H](C)/C=C/C=C/C=C/1C` [Example 4, Rapamycin 31-Ester With N,N-dimethylglycine HCl Salt 41-Ester With 4-fluorophenyl Carbamic Acid], the percent change in thymocyte proliferation (counts per minute) versus untreated control at 0.01 µM in test [1] (10 nM) is -38%. Besides, in test [1] (100 nM), the percent change in thymocyte proliferation (counts per minute) versus untreated control at 0.1 µM is -94%. Besides, in test [2], the “Skin Graft Assay, Analogs (mean graft survival time, days ± SD)” value is listed as 8.17 ± 0.41 days.
As to `CO[C@H]1C[C@@H]2CC[C@@H](C)[C@@](O)(O2)C(=O)C(=O)N2CCCC[C@H]2C(=O)O[C@H]([C@H](C)C[C@@H]2CC[C@@H](O)[C@H](OC)C2)CC(=O)[C@H](C)/C=C(\C)[C@@H](O)[C@@H](OC)C(=O)[C@H](C)C[C@H](C)/C=C/C=C/C=C/1C` [Rapamycin], the “Percentage Inhibition in LAF Assay at 10 nM concentration, Rapamycin” value in test [1] (10 nM, rapamycin comparator) was -85% and -89%. Further, in test [1] (100 nM, rapamycin comparator, 0.1 µM), the “Percentage Inhibition in LAF Assay at 100 nM concentration, Rapamycin” value was -97% and -96% and -94% and -95%. For the same molecule, in the test on Candida albicans, the antifungal activity result is on record as “antifungal activity”. Further, in test [3], the antitumor activity entry is “antitumor activity”. For the same molecule, in test [4], the “effect in the experimental allergic encephalomyelitis model” value is reported as “effective”. Further, the “effect in the adjuvant arthritis model” value in test [5] is “effective”. For the same molecule, in test [6], the “inhibition of the formation of IgE-like antibodies” value was “effectively inhibited”.
As to `CO[C@H]1C[C@@H]2CC[C@@H](C)[C@@](O)(O2)C(=O)C(=O)N2CCCC[C@H]2C(=O)O[C@H]([C@H](C)C[C@@H]2CC[C@@H](OS(=O)(=O)c3cccc4c(N(C)C)cccc34)[C@H](OC)C2)CC(=O)[C@H](C)/C=C(\C)[C@@H](OC(=O)CN(C)C)[C@@H](OC)C(=O)[C@H](C)C[C@H](C)/C=C/C=C/C=C/1C` [Example 8, Rapamycin 31-Ester With N,N-dimethylglycine 42-Ester With 5-(dimethylamino)naphthalene-1-sulfonic Acid], in test [1] (10 nM), the percent change in thymocyte proliferation (counts per minute) versus untreated control at 0.01 µM turned out to be 13%. In test [1] (100 nM), the percent change in thymocyte proliferation (counts per minute) versus untreated control at 0.1 µM was -54%.
